{"source": "ChEMBL document CHEMBL4725399", "about": "“Galangin ameliorated pulmonary fibrosis in vivo and in vitro by regulating epithelial-mesenchymal transition” (Bioorg Med Chem, 2020)", "key": {"Mus musculus [1]": {"tested_on": "Mus musculus", "assay": "Antifibrotic activity in C57BL/6 mouse model of bleomycin-induced lung fibrosis assessed as reduction in weight loss at 50 mg/kg dosed via oral gavage and measured for 7 to 14 days", "format": "functional, organism-based", "details": "time day 7-14"}, "Mus musculus [2]": {"tested_on": "Mus musculus", "assay": "Antifibrotic activity in C57BL/6 mouse model of bleomycin-induced lung fibrosis assessed as reduction in weight loss at 25 mg/kg dosed via oral gavage and measured for 7 to 14 days", "format": "functional, organism-based", "details": "time day 7-14"}, "Mus musculus [3]": {"tested_on": "Mus musculus", "assay": "Antifibrotic activity in po dosed C57BL/6 mouse model of bleomycin-induced lung fibrosis assessed as reduction in weight loss after 7 to 14 days", "format": "functional, organism-based", "details": "dose mg/kg 25-50, time day 7-14"}, "Mus musculus [4]": {"tested_on": "Mus musculus", "assay": "Antifibrotic activity in C57BL/6 mouse model of bleomycin-induced lung fibrosis assessed as reduction in CD4+CD69+ T-cells at 50 mg/kg dosed via oral gavage for 14 days by flow cytometry analysis", "format": "functional, organism-based", "details": "time 14.0 day"}, "Mus musculus [5]": {"tested_on": "Mus musculus", "assay": "Antifibrotic activity in C57BL/6 mouse model of bleomycin-induced lung fibrosis assessed as reduction in CD4+CD69+ T-cells at 25 mg/kg dosed via oral gavage for 14 days by flow cytometry analysis", "format": "functional, organism-based", "details": "dose 25.0 […], time 14.0 day"}, "Mus musculus [6]": {"tested_on": "Mus musculus", "assay": "Antifibrotic activity in C57BL/6 mouse model of bleomycin-induced lung fibrosis assessed as reduction in CD8+CD69+ T-cells at 50 mg/kg dosed via oral gavage for 14 days by flow cytometry analysis", "format": "functional, organism-based", "details": "time 14.0 day"}, "Mus musculus [7]": {"tested_on": "Mus musculus", "assay": "Antifibrotic activity in C57BL/6 mouse model of bleomycin-induced lung fibrosis assessed as reduction in CD8+CD69+ T-cells at 25 mg/kg dosed via oral gavage for 14 days by flow cytometry analysis", "format": "functional, organism-based", "details": "time 14.0 day"}, "Mus musculus [8]": {"tested_on": "Mus musculus", "assay": "Antifibrotic activity in C57BL/6 mouse model of bleomycin-induced lung fibrosis assessed as reduction in dendritic cells at 50 mg/kg dosed via oral gavage for 14 days by flow cytometry analysis", "format": "functional, organism-based", "details": "time 14.0 day"}, "Mus musculus [9]": {"tested_on": "Mus musculus", "assay": "Antifibrotic activity in C57BL/6 mouse model of bleomycin-induced lung fibrosis assessed as reduction in dendritic cells at 25 mg/kg dosed via oral gavage for 14 days by flow cytometry analysis", "format": "functional, organism-based", "details": "time 14.0 day"}, "Mus musculus [10]": {"tested_on": "Mus musculus", "assay": "Inhibition of epithelial-mesenchymal transition in C57BL/6 mouse model of bleomycin-induced lung fibrosis assessed as decrease in alpha-SMA protein expression in lung tissue at 25 to 50 mg/kg dosed via oral gavage for 14 days by Western blotting analysis", "format": "functional, organism-based", "details": "dose mg/kg 25-50, time 14.0 day"}, "Mus musculus [11]": {"tested_on": "Mus musculus", "assay": "Inhibition of epithelial-mesenchymal transition in C57BL/6 mouse model of bleomycin-induced lung fibrosis assessed as decrease in vimentin protein expression in lung tissue at 25 to 50 mg/kg dosed via oral gavage for 14 days by Western blotting analysis", "format": "functional, organism-based", "details": "dose mg/kg 25-50, time 14.0 day"}, "Mus musculus [12]": {"tested_on": "Mus musculus", "assay": "Inhibition of epithelial-mesenchymal transition in C57BL/6 mouse model of bleomycin-induced lung fibrosis assessed as increase in E-cadherin protein expression in lung tissue at 25 to 50 mg/kg dosed via oral gavage for 14 days by Western blotting analysis", "format": "functional, organism-based", "details": "dose mg/kg 25-50, time 14.0 day"}, "Mus musculus [13]": {"tested_on": "Mus musculus", "assay": "Antifibrotic activity in C57BL/6 mouse model of bleomycin-induced lung fibrosis assessed as inhibition of pathological changes by measuring collagen deposition in lung tissue at 25 to 50 mg/kg dosed via oral gavage for 14 days by H and E staining-based histopathological analysis", "format": "functional, organism-based", "details": "dose mg/kg 25-50, time 14.0 day"}, "Mus musculus [14]": {"tested_on": "Mus musculus", "assay": "Antifibrotic activity in C57BL/6 mouse model of bleomycin-induced lung fibrosis assessed as inhibition of pathological changes by measuring collagen deposition in lung tissue at 25 to 50 mg/kg dosed via oral gavage for 14 days by Masson's trichrome staining-based histopathological analysis", "format": "functional, organism-based", "details": "dose mg/kg 25-50, time 14.0 day"}, "Mus musculus [15]": {"tested_on": "Mus musculus", "assay": "Antifibrotic activity in bleomycin-induced C57BL/6 mouse model of lung fibrosis assessed as reduction in Ashcroft score at 25 to 50 mg/kg dosed via oral gavage for 14 days by H and E and Masson's trichrome staining based histopathological analysis", "format": "functional, organism-based", "details": "dose mg/kg 25-50, time 14.0 day"}, "Mus musculus [16]": {"tested_on": "Mus musculus", "assay": "Antifibrotic activity in bleomycin-induced C57BL/6 mouse model of lung fibrosis assessed as reduction in fibroblast differentiation by measuring alpha-SMA at 25 to 50 mg/kg dosed via oral gavage for 14 days by measuring reduction in alpha-SMA protein expression by immunohistochemical analysis", "format": "functional, organism-based", "details": "dose mg/kg 25-50, time 14.0 day"}, "NIH3T3 [17]": {"tested_on": "NIH3T3", "assay": "Cytotoxicity against mouse NIH3T3 cells assessed as reduction in cell viability after 24 to 72 hrs by MTT assay", "format": "cell-based", "details": "time 24-72 hrs"}, "NIH3T3 [18]": {"tested_on": "NIH3T3", "assay": "Antifibrotic activity in mouse NIH3T3 cells assessed as decrease in TGF-beta1 induced alpha-SMA protein expression at 40 uM after 24 hrs by Western blotting analysis", "format": "functional, cell-based"}, "NIH3T3 [19]": {"tested_on": "NIH3T3", "assay": "Antifibrotic activity in mouse NIH3T3 cells assessed as decrease in TGF-beta1 induced MMP-9 protein expression at 40 uM after 24 hrs by Western blotting analysis", "format": "functional, cell-based"}, "NIH3T3 [20]": {"tested_on": "NIH3T3", "assay": "Antifibrotic activity in mouse NIH3T3 cells assessed as up regulation of TGF-beta1 inhibited E-cadherin protein expression at 40 uM after 24 hrs by Western blotting analysis", "format": "functional, cell-based"}, "Mus musculus [21]": {"tested_on": "Mus musculus", "assay": "Antifibrotic activity in C57BL/6 mouse model of bleomycin-induced lung fibrosis assessed as inhibition of pathological changes by measuring inflammatory infiltration in lung tissue at 25 to 50 mg/kg dosed via oral gavage for 14 days by H and E staining-based histopathological analysis", "format": "functional, organism-based", "details": "dose mg/kg 25-50, time 14.0 day"}, "NIH3T3 [22]": {"tested_on": "NIH3T3", "assay": "Antifibrotic activity in mouse NIH3T3 cells assessed as reduction in TGF-beta1 induced myofibroblast differentiation by measuring reduction in alpha-SMA protein expression at 40 uM after 24 hrs by immunofluorescence staining analysis", "format": "functional, cell-based"}, "A549 [23]": {"tested_on": "A549", "assay": "Cytotoxicity against human A549 cells assessed as reduction in cell viability after 24 to 72 hrs by MTT assay", "format": "functional, cell-based", "details": "time hrs 24-72"}, "A549 [24]": {"tested_on": "A549", "assay": "Down regulation of alpha-SMA protein expression in human A549 cells at 50 uM by Western blotting analysis", "format": "functional, cell-based", "details": "time 24.0 hrs"}, "A549 [25]": {"tested_on": "A549", "assay": "Down regulation of vimentin protein expression in human A549 cells at 50 uM by Western blotting analysis", "format": "functional, cell-based", "details": "time 24.0 hrs"}, "A549 [26]": {"tested_on": "A549", "assay": "Up regulation of E-cadherin level in TGF-beta-stimulated human A549 cells at 50 uM by Western blot analysis", "format": "functional, cell-based", "details": "time 24.0 hrs"}, "A549 [27]": {"tested_on": "A549", "assay": "Antimigratory activity in human A549 cells assessed as inhibition of TGF-beta1 induced epithelial-mesenchymal transition at 50 uM pretreated with TGF-beta1 for 1 hr followed by compound addition and measured after 24 hrs by scratch wound healing based microscopic analysis", "format": "functional, cell-based"}, "Mus musculus [28]": {"tested_on": "Mus musculus", "assay": "Antifibrotic activity in C57BL/6 mouse model of bleomycin-induced lung fibrosis assessed as inhibition of pathological changes by measuring inflammatory infiltration in lung tissue at 25 to 50 mg/kg dosed via oral gavage for 14 days by Masson's trichrome staining-based histopathological analysis", "format": "functional, organism-based", "details": "dose mg/kg 25-50, time 14.0 day"}, "A549 [29]": {"tested_on": "A549", "assay": "Inhibition of cell migration in TGF-beta-stimulated human A549 cells at 50 uM after 24 hrs by optical microscopic based wound healing assay", "format": "functional"}}, "note": "The source made the active and inactive calls. No cut-off for these calls is given here."}
{"smiles": "O=c1c(O)c(-c2ccccc2)oc2cc(O)cc(O)c12", "note": "[GALANGIN]", "values": [{"measurement": "Activity", "setting": "Mus musculus [1]", "result": "Active"}, {"measurement": "Activity", "setting": "Mus musculus [2]", "result": "inactive"}, {"measurement": "Activity", "setting": "Mus musculus [3]", "result": "Dose-dependent effect"}, {"measurement": "Activity", "setting": "Mus musculus [4]", "result": "Active"}, {"measurement": "Activity", "setting": "Mus musculus [5]", "result": "inactive"}, {"measurement": "Activity", "setting": "Mus musculus [6]", "result": "Active"}, {"measurement": "Activity", "setting": "Mus musculus [7]", "result": "inactive"}, {"measurement": "Activity", "setting": "Mus musculus [8]", "result": "Active"}, {"measurement": "Activity", "setting": "Mus musculus [9]", "result": "inactive"}, {"measurement": "Activity", "setting": "Mus musculus [10]", "result": "Active"}, {"measurement": "Activity", "setting": "Mus musculus [11]", "result": "Active"}, {"measurement": "Activity", "setting": "Mus musculus [12]", "result": "Active"}, {"measurement": "Activity", "setting": "Mus musculus [13]", "result": "Active"}, {"measurement": "Activity", "setting": "Mus musculus [14]", "result": "Active"}, {"measurement": "Activity", "setting": "Mus musculus [15]", "result": "Active"}, {"measurement": "Activity", "setting": "Mus musculus [16]", "result": "Active"}, {"measurement": "Activity", "setting": "NIH3T3 [17]", "result": "Toxic"}, {"measurement": "Activity", "setting": "NIH3T3 [18]", "result": "Active"}, {"measurement": "Activity", "setting": "NIH3T3 [19]", "result": "Active"}, {"measurement": "Activity", "setting": "NIH3T3 [20]", "result": "Active"}, {"measurement": "Activity", "setting": "Mus musculus [21]", "result": "Active"}, {"measurement": "Activity", "setting": "NIH3T3 [22]", "result": "Active"}, {"measurement": "Activity", "setting": "A549 [23]", "result": "Active"}, {"measurement": "Activity", "setting": "A549 [24]", "result": "Active"}, {"measurement": "Activity", "setting": "A549 [25]", "result": "Active"}, {"measurement": "Activity", "setting": "A549 [26]", "result": "Active"}, {"measurement": "Activity", "setting": "A549 [27]", "result": "Active"}, {"measurement": "Activity", "setting": "Mus musculus [28]", "result": "Active"}, {"measurement": "inhibition", "setting": "A549 [29]", "result": "Active"}]}
